Here are results for 3 molecules from ChEMBL document CHEMBL1150688, “Guieranone A, a naphthyl butenone from the leaves of Guiera senegalensis with antifungal activity” (2003).

The structures appear in SMILES notation. Active and inactive are the calls of the source. The calls are words filed in the database; no cut-off is given here.

This experiment concerns Cladosporium cucumerinum. The experiment is described as follows: Antifungal activity against Cladosporium cucumerinum assessed as drug level causing inhibition of fungal growth after 2 days by TLC based bioautography. Type of experiment: functional.

Regarding `C/C=C/C(=O)c1c(OC)cc2cc(OC)cc(OC)c2c1OC` [GUIERANONE A], the INH was determined as 1 µg.
Consider `COc1cc(OC)c2c(c1)cc(OC)c1c(=O)cc(C)oc12`, for which the outcome was inactive.
Take `COc1cc(OC)c2c3c(c(OC)cc2c1)C(=O)CC(C)O3` (stereo not drawn): the result was inactive.
